The nature of data set [1]: Merckoquant peroxide test (ppm of H2O2) during storage at room temperature. The settings on record: for stabilizing effect: 0.05% by weight of the antioxidant; for stabilization of the glycerol monoalkyl ethers over a long period (peroxides, neck-in effect): added to Sensiva SC 50, storage at room temperature, Table 1; for ppm of H2O2: storage at room temperature.
Method: The data in “ppm of H2O2” refer to the peroxide determination using Merckoquant® peroxide test analysis strips. This semiquantitative method for determining peroxide was carried out as follows: • About 0.5 g of the sample to be investigated is placed in a test tube and treated with the same amount of demineralized water. The two phases are mixed by shaking, and a Merckoquant® peroxide test analysis strip is dipped in for one second. The damp strip is removed from the liquid and the peroxide content is read off after 15 seconds using the reference scale and noted. If the peroxide content is too high, the amount is doubled with demineralized water, again shaken etc., until a reading is possible using the reference scale. The value obtained is back-calculated using the dilution.
(§2) Following preparation of the samples, the value for ppm of H2O2 and the pH were determined at regular intervals.
Data set [2] is described as follows: Peroxide number (PON) by titration with sodium thiosulphate. In kind it is physicochemical. To be noted: for peroxide number as a function of time: Example 2, salt solution added to Sensiva SC 50. The procedure:
The peroxide number (PON) gives the amount peroxide in milliequivalents of active oxygen which is present in 1000 g of substance, determined in accordance with the method below. • 5.00 g of substance are weighed into a 250 ml Erlenmeyer flask with ground-glass stopper and dissolved in 30 ml of a mixture of 2 parts by volume of chloroform R and 3 parts by volume of acetic acid 98% R with shaking. […] Following the addition of 5 ml of starch solution R, the titration is continued with vigorous shaking until the blue coloration disappears (n1 ml of 0.01 N sodium thiosulphate solution). A control experiment is carried out under the same conditions (n2 ml of 0.01 N sodium thiosulphate solution). For this, at most 0.1 ml of 0.01 N sodium thiosulphate solution must be consumed.
The peroxide number is calculated as follows: […]
where m is the initial weight of the substance in grams.
The method is explained in more detail in DAB 9-Kornrnentar [German Pharmacopoeia 9 Commentary] (K. Hartke, E. Mutschler, Editor, Wissenschaftliche Verlagsgesellschaft mbH Stuttgart, 9th edition 1986).
(§1) The peroxide number of compositions of Sensiva® SC 50 and Lipacide e8G salts was compared with the stability of mixtures of Sensiva® SC 50 and other 30 salts.

A short description of data set [3]: Appearance of the storage bottle (neck-in effect). The format is physicochemical. To be noted: for Appearance of the bottle: Example 1, storage at room temperature.
Method: as §2
Data set [4] in a line: pH of 50% strength slurry in demineralized water, Merck pH indicator strips. In kind it is physicochemical. To be noted: storage at room temperature. The source says: The pH of the anhydrous solutions is given as the value which a 50% strength slurry of the respective anhydrous solution in demineralized water has, determined using Merck® pH indicator strips.
The nature of another data set: Hazen colour number. In kind it is physicochemical.
The nature of data set [5]: Appearance of the composition. The format is physicochemical.
Source text: n.c.=no change, d.=days, m.=months, w.=weeks, y.=years, n.d.=not detectable, cl=clear, c=colourless, kr=crystals, yl=yellowish, S.=start of the investigation.
as §1

The mark [6] stands for this setting: Example 2, after storage, time not printed (line below the 2 y. 2 m. lines).
The mark [7] stands for this setting: Example 2, start of the investigation.

Counter-ions that a name gives are not always drawn.

With `COc1ccc(O)c(C(C)(C)C)c1` [BHA, 3-tert-butyl-4-hydroxyanisole], in data set [1], the stabilizing effect result is reported as “exhibit the stabilizing effect” and the “stabilization of the glycerol monoalkyl ethers over a long period (peroxides, neck-in effect)” value was “stabilize the glycerol monoalkyl ethers over a long period”.

`Cc1cc(C(C)(C)C)c(O)c(C(C)(C)C)c1` [BHT, 2,6-di-tert-butyl-p-cresol]: in data set [1], the stabilizing effect entry was “exhibit the stabilizing effect” and the “stabilization of the glycerol monoalkyl ethers over a long period (peroxides, neck-in effect)” value is recorded as “stabilize the glycerol monoalkyl ethers over a long period”.

Consider `CCCCC(CC)COCC(O)CO` (stereo not shown) [Experiment A(Alu), 3-[(2-ethylhexyl)oxy]-1,2-propanediol], for which the “ppm of H2O2” value in data set [1] (1 y.) was 10 ppm; in data set [1] (2 m., listed as A(Alu)), 25 ppm; in data set [1] (2 w., listed as A(Alu)), 2 ppm; in data set [1] (2 y., listed as A(Alu)), 0 ppm; in data set [1] (3 m., listed as A(Alu)), 25-50 ppm; in data set [1] (3 w.), 2-5 ppm. Further, the “ppm of H2O2” value in data set [1] (4 m., listed as A(Alu)) is recorded as 25-50 ppm; in data set [1] (4 w.), 2-5 ppm; in data set [1] (5 m., listed as A(Alu)), 50 ppm; in data set [1] (5 w.), 2-5 ppm; in data set [1] (6 w.), 2-5 ppm; in data set [1] (6.5 m., listed as A(Alu)), 50 ppm. In addition, the “ppm of H2O2” value in data set [1] (7 w., listed as A(Alu)) is on record as 5 ppm; in data set [1] (8 w., listed as A(Alu)), 5 ppm; in data set [1] (8.5 m., listed as A(Alu)) it was 25-50 ppm; in data set [1] (11 m., listed as A(Alu)), 10-25 ppm; in data set [1] (14 m.), 10 ppm; in data set [1] (16 m.), 10 ppm. In addition, the “ppm of H2O2” value in data set [1] (7 d., listed as A(Alu)) is on record as 0.5 ppm; in data set [1] (9 d., listed as A(Alu)) it was 0.5-1 ppm. Besides, in data set [2] (Example 1, start of the investigation), the “PON S.” value is on record as 0.5 milliequivalents of active oxy. Further, the “Appearance of the bottle” value in data set [3] (2 y. 11 m., listed as A(Alu)) was “n.c”; in data set [3] (2 y., listed as A(Alu)) it was “n.c”. The pH in data set [4] (2 m.), in data set [4] (2 w.), in data set [4] (3 w.), in data set [4] (4 w.), in data set [4] (5 w.) and in data set [4] (6 w.) was 3 each time. Further, the pH in data set [4] (7 w.), in data set [4] (8 w.), in data set [4] (7 d.) and in data set [4] (9 d.) was 3 throughout.

For the compound `CCCCC(CC)COCC(O)CO` (stereo not shown) [Experiment A, 3-[(2-ethylhexyl)oxy]-1,2-propanediol], the Hazen colour number in the data set “Hazen colour number” (Example 1, storage at room temperature, 8 w.) is recorded as less than 5; in “Hazen colour number” (setting [6]), 0. Besides, the “development of the peroxide content in stored preparations” value in data set [1] (Table 1, storage) is given as “chaotic development of the peroxide number”. Moreover, the “ppm of H2O2” value is reported as 2-5 ppm in data set [1] (2 m., listed as A); 2-5 ppm in data set [1] (2 w., listed as A); 10-25 ppm in data set [1] (2 y., listed as A); 2-5 ppm in data set [1] (3 m., listed as A); 5 ppm in data set [1] (4 m., listed as A); 5 ppm in data set [1] (5 m., listed as A). The “ppm of H2O2” value was 5 ppm in data set [1] (6.5 m., listed as A); 2-5 ppm in data set [1] (7 w., listed as A); 2-5 ppm in data set [1] (8 w., listed as A); 5 ppm in data set [1] (8.5 m., listed as A); 10 ppm in data set [1] (11 m., listed as A); 2 ppm in data set [1] (7 d., listed as A). Moreover, the “ppm of H2O2” value in data set [1] (9 d., listed as A) turned out to be 2 ppm. Moreover, in data set [5] (setting [6]), the Appearance result is “cl c”. Besides, the “Appearance S.” value in data set [5] (setting [7]) was “cl c”. Also, the “PON 2 y. 11 m.” value in data set [2] (Example 1, storage at room temperature, 2 y. 11 m., n.d.=not detectable) is 25.3 milliequivalents of active oxy. In addition, the PONS. in data set [2] (setting [7]) is reported as 10 milliequivalents of active oxy. Besides, the PON is 5-10 milliequivalents of active oxy in data set [2] (Example 2, storage 2 y. 2 m.); 20 milliequivalents of active oxy in data set [2] (Example 2, storage 6 m.); 25 milliequivalents of active oxy in data set [2] (Example 2, storage 6 w.); 25 milliequivalents of active oxy in data set [2] (Example 2, storage 11 w.); 10 milliequivalents of active oxy in data set [2] (Example 2, storage 4 d.); 10-25 milliequivalents of active oxy in data set [2] (Example 2, storage 9 d.). The “Appearance of the bottle” value in data set [3] (2 y. 11 m., listed as A) is “consider-”; in data set [3] (2 y., listed as A), “neck in”. For the same compound, in data set [3] (Example 2, storage 2 y. 2 m.), the PE bottle entry is “considerable”.

With `CCCCCCCC(=O)NCC(=O)O` [Lipacide C8G sodium salts, N-octanoylglycine], the “peroxide number as a function of time” value in data set [2] is given as “the peroxide number decreases as a function of time”. Moreover, in data set [3] (Example 2, salt solution added to Sensiva SC 50), the neck-in effect result is listed as “the neck-in effect is avoided”.

`CCCCCCCCCCCCCCCC(=O)OC[C@H](O)[C@H]1OC(=O)C(O)=C1O` [ascorbyl palmitate, 6-0-palmitoyl-L-ascorbic acid]: the “effect on stabilization of the glycerol monoalkyl ether by vitamin E” value in data set [1] (Experiments N and O) was “inhibit its stabilization by vitamin E”. For the same compound, the “stabilization of the glycerol monoalkyl ethers over a long period (peroxides, neck-in effect)” value in data set [1] is reported as “does not stabilize the glycerol monoalkyl ethers”.

`CC(C)(CO)[C@@H](O)C(=O)NCCCO` [dexpanthenol]: in data set [1], the stabilizing effect result is “exhibit the stabilizing effect” and the “stabilization of the glycerol monoalkyl ethers over a long period (peroxides, neck-in effect)” value is “stabilize the glycerol monoalkyl ethers over a long period”.

As for `O=C([O-])CC(O)(CC(=O)[O-])C(=O)[O-].[Na+].[Na+].[Na+]` [sodium citrate], in data set [2], the “peroxide number as a function of time” value is listed as “could not be achieved”.

For the compound `O=S(=O)([O-])[O-].[Na+].[Na+]` [sodium sulphate], the “peroxide number as a function of time” value in data set [2] is recorded as “could not be achieved”.

For the compound `Cc1c(C)c2c(c(C)c1O)CC[C@@](C)(CCC[C@H](C)CCC[C@H](C)CCCC(C)C)O2` [vitamin E, Alpha-tocopherol], in data set [1], the stabilizing effect result was “exhibit the stabilizing effect” and the “stabilization of the glycerol monoalkyl ethers over a long period (peroxides, neck-in effect)” value is “stabilize the glycerol monoalkyl ethers over a long period”.

(Values after patent US20160008470A1, “STORAGE-STABLE COMPOSITIONS OF GLYCEROL MONOALKYL ETHERS” (AIR LIQUIDE SANTE (INTERNATIONAL), priority 2000, published 2016).)
